Assay results taken from patent publication US7618657B2, “Active ingredients preparation and single compound purification from traditional Chinese herbal medicine Fructus Trichosanthis and uses thereof” (priority 2003, dated 2009).

Tests used:
K562 cells [1] = experiment: TMB staining of hemoglobin positive K562 cells; assay type: cell-based, human; conditions: six days culture, hydroxyurea (positive control) 25.0 μg/ml
Procedure: K562 cells (ATCC) were cultured in RPMI 1640 (Gibco) supplemented with 10% fetal calf serum (FCS, Gibco) and 1% PSN (Gibco). The cultures were maintained under a humidified atmosphere with 95% air/5% CO2 at 37° C.
The hemoglobin positive K562 cells can be identified by 3,3′,5,5′-tetramethylbenzidine (TMB, Sigma) staining. In brief, 10 μl/cell suspension was pipetted out and mixed with 10 μl TMB working solution. Five minutes later, cells were scored as positive (blue) or negative (pale yellow) at 200× microscope.
Before the assay, K562 cells were scored first by TMB staining to ensure there was no selfdifferentiation (TMB positive cell percentage less than 1.0%). 100 μl/well complete RPMI 1640 was added into a 96-well plate, and 180 μl was added in the first well. 20 μl Trichosanthes extraction components was added into the first well immediately. Then 100 μl of the mixture was transferred to the next well. By such one half dilution method, serial dilutions of Trichosanthes extraction components were got.
100 μl K562 cell suspension with the density of 4×10^4 cells/ml was add into each well of the 96-well plate. […] Then the hemoglobin positive cells were recorded by TMB staining.
Dose-response effect of the lead compound from Trichosanthes was studied on K562 cells which were cultured and assayed as described in example 3. […] Then the hemoglobin positive cells were recorded by TMB staining.

K562 cells [2] = experiment: FACS analysis of fetal hemoglobin expression in treated K562 cells; assay type: cell-based, human; conditions: HU 25 mg/ml, 6 days, FIG. 7
Procedure: K562 cells were cultured with hydroxyurea (HU, 25 mg/ml) and the lead compound from Trichosanthes (12.5 ng/ml) for 6 days. Then the cells were conjugated with PE labeled mouse anti human fetal hemoglobin monoclonal antibodies (Becton Dickinson) followed by FACS analysis. In brief, 1×10^6 cells were collected in a 15 ml falcon tube and centrifuged in 150 rpm for 5 min. The cell pallet was washed with PBS. Then cells were fixed by gently mixing with 1 ml PBS with 4% formaldehyde (37-40%, Merck) for 1 hr at room temperature. The fixed cells were washed once with PBS and then were resuspended in 100 μl 0.01% Triton X-100 (Merck) in PBS/0.1% BSA (Sigma). 20 μl monoclonal antibody was added in, followed by mixing thoroughly and incubating for 30 min in darkness at room temperature, with frequent gentle shaking. Finally the cells were washed with 1× PBS with 0.1% sodium azide once and kept in 4° C. until analysis.

NC(=O)NO [Hydroxyurea, hydroxyurea]
TMB Positive Cell Percentage (K562 cells [1]): 66.7 ± 4.4% | expression of fetal hemoglobin (FACS, PE labeled anti human fetal hemoglobin antibody) (K562 cells [2]): induced
